Where two headings read alike, the source gives them in different places.
How the values were obtained:
PfDHODH = molecular target: T1, PfDHODH (Plasmodium falciparum, UniProt Q08210); test: biochemical
T1 sequence (Q08210 24-569): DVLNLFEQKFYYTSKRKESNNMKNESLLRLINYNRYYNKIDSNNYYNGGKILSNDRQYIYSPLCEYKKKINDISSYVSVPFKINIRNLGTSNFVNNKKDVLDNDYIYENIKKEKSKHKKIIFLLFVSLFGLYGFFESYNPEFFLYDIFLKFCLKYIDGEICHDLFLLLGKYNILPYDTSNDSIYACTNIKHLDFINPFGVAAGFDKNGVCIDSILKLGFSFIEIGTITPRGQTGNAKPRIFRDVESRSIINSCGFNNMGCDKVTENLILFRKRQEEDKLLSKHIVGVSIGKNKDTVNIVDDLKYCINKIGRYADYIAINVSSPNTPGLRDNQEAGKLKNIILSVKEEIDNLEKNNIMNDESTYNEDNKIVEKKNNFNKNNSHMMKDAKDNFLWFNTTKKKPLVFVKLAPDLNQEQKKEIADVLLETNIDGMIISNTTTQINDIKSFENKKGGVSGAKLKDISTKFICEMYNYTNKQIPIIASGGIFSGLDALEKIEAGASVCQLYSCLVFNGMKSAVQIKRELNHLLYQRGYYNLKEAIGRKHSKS
Protocol: (§1) Briefly, the assay solution contained 100 mM HEPES, pH 8.0, 150 mM NaCl, 10% glycerol, 0.1% Triton X-100, 20 micro molar COQD (coenzyme QD), 200 micro molar L-dihydroorotate, and 120 micro molar DCIP. Reactions are initiated by addition of enzyme to a final concentration in the range of about […] to about 50 nM while maintaining the temperature of a circulating water bath at 25° C.
(§2) Assay solutions were prepared as discussed above, except that DCIP is not present and the solution is depleted of oxygen by the inclusion of an oxidase/reductase system, such as, 0.1 mg/ml of glucose oxidase, 0.02 mg/ml catalase and 50 mM glucose. The data obtained is fitted to equation 1, to determine the IC50 values of the representative compounds.

PbDHODH = PbDHODH (Plasmodium berghei, UniProt A0A509AEH5); test: DHODH enzyme inhibition assay, PbDHODH; format: biochemical, P. berghei; conditions: Table 4, IC50 class
Sequence of PbDHODH (A0A509AEH5 entry or part of it): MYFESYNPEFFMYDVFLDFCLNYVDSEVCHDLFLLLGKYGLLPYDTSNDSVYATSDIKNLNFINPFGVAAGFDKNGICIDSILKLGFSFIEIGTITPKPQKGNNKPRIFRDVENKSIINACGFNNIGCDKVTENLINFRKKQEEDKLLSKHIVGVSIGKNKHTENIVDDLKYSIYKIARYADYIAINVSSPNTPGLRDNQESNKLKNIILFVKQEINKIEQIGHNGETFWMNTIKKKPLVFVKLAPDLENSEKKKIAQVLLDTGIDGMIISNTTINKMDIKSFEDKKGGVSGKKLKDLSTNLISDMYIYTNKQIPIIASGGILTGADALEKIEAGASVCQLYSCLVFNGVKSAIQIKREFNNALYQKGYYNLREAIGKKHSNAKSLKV
Protocol: as §1, §2

P. falciparum = test: Inhibition of cell proliferation, 3H-hypoxanthine uptake in P. falciparum-infected erythrocytes; format: cell-based; conditions: Plasmodium falciparum, 3D7, Erythrocyte, Table 5, 3D7 cells; read-out: EC50 P. falciparum 3D7 cells
Source text: [formula] II. In Vitro Evaluation of Compound Efficacy on the Human Malaria Parasite, P. falciparum.

hDHODH = hDHODH (Homo sapiens, UniProt Q02127); test: DHODH enzyme inhibition assay, hDHODH; format: biochemical; conditions: Table 4, IC50 class; read-out: hDHODH
Sequence of hDHODH (Q02127 whole entry): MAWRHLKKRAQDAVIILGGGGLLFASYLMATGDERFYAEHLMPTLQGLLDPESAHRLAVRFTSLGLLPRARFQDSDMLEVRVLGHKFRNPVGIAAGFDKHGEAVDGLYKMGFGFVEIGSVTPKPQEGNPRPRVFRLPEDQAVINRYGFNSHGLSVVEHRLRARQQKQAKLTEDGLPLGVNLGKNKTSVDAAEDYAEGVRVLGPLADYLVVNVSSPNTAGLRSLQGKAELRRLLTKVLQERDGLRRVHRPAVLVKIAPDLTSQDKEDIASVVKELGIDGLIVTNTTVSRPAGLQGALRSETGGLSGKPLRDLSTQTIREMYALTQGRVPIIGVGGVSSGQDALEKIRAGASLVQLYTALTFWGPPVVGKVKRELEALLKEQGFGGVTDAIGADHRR
Protocol: as §1, §2

[1] = Table 5, read-out: PfDHODH IC50
[2] = Table 4, IC50 class, read-out: PfDHODH

SMILES	IC50 (PfDHODH; [1]) [µM]	IC50 (PbDHODH; PbDHODH) [µM]	IC50 (PfDHODH; [2]) [µM]	also measured
CCc1nc2nc(C)cc(Nc3ccc(F)c(Cl)c3)n2n1	0.145			
Cc1cc(Nc2ccc(Cl)c(Cl)c2)n2nc(C)nc2n1	0.0752			
COc1ccc(Nc2cc(C)nc3nc(C)nn23)cc1Cl [drawing 98]	0.375			
CCCc1nc2nc(C)cc(Nc3cccc(Cl)c3)n2n1	0.247			
Cc1cc(Nc2c(F)c(F)cc(F)c2F)n2ncnc2n1		> 10	> 10	
Cc1cc(Nc2ccc(C(F)(F)F)cc2)n2nc(C)nc2n1 [2,5-dimethyl-N-(4-(trifluoromethyl)phenyl)-[1,2,4]triazolo[1,5-a]pyrimidin-7-amine]	0.65 ± 0.31			EC50 (P. falciparum): 0.93 ± 0.018 µM
Cc1cc(Nc2ccc(Cl)cc2)n2ncnc2n1			< 2	IC50 (PbDHODH; read-out: PbDHODH): 2 to 10 µM; IC50 (hDHODH): > 10 µM
Cc1cc(Nc2ccc(C(C)(C)C)cc2)n2ncnc2n1		< 2	< 2	
Cc1cc(Nc2ccc(I)cc2)n2ncnc2n1	0.151			
Cc1cc(Nc2cccc(C(F)(F)F)c2)n2nc(C)nc2n1	0.285			
Cc1cc(Nc2c(F)cccc2F)n2ncnc2n1		> 10	> 10	
Cc1cc(Nc2ccc(Br)cc2)n2ncnc2n1		> 10	2 to 10	
Cc1cc(Nc2ccc(C)c(C)c2)n2nc(C)nc2n1	0.0814			
CCCc1nc2nc(C)cc(Nc3ccc(C)c(Cl)c3)n2n1	0.132			
Cc1cc(Nc2ccc(C)c(C)c2)n2ncnc2n1			< 2	IC50 (PbDHODH; read-out: PbDHODH): 2 to 10 µM; IC50 (hDHODH): > 10 µM
Cc1cc(Nc2ccccc2F)n2ncnc2n1		> 10	> 10	
Cc1cc(Nc2ccccc2C(F)(F)F)n2ncnc2n1		> 10	> 10	
Cc1cc(Nc2cc(C(F)(F)F)cc(C(F)(F)F)c2)n2ncnc2n1			> 10	IC50 (PbDHODH; read-out: PbDHODH): > 10 µM; IC50 (hDHODH): > 10 µM
Cc1cc(NCCCc2ccccc2)n2ncnc2n1			> 10	IC50 (PbDHODH; read-out: PbDHODH): > 10 µM; IC50 (hDHODH): > 10 µM
Cc1cc(Nc2ccc(N3CCOCC3)cc2)n2ncnc2n1	> 100			
CCc1nc2nc(C)cc(Nc3ccc(C)c(F)c3)n2n1	0.0663			

SMILES	IC50 (PfDHODH; [1]) [µM]	IC50 (PbDHODH; PbDHODH) [µM]	IC50 (PfDHODH; [2]) [µM]	also measured
Cc1cc(Nc2ccc(F)c(C)c2)n2ncnc2n1 [drawing 39]			2 to 10	IC50 (PbDHODH; read-out: PbDHODH): > 10 µM; IC50 (hDHODH): 2 to 10 µM
Cc1cc(Nc2ccc(C)c(Cl)c2)n2ncnc2n1	0.24			
CCc1nc2nc(C)cc(Nc3ccc(Br)cc3F)n2n1	0.395			
Cc1cc(Nc2ccc(OC(F)(F)F)cc2)n2ncnc2n1			< 2	IC50 (PbDHODH; read-out: PbDHODH): > 10 µM; IC50 (hDHODH): > 10 µM
Cc1cc(Nc2ccc(C(C)C)cc2)n2ncnc2n1		< 2	< 2	IC50 (hDHODH): > 10 µM
Cc1cccc(Nc2cc(C)nc3ncnn23)c1		> 10	2 to 10	
Cc1ccc(Nc2cc(C)nc3ncnn23)c(F)c1			> 10	IC50 (PbDHODH; read-out: PbDHODH): > 10 µM; IC50 (hDHODH): > 10 µM
Cc1cc(Nc2ccccc2C#N)n2ncnc2n1		> 10	> 10	
Cc1cc(Nc2ccc(C)c(F)c2)n2ncnc2n1			< 2	IC50 (PbDHODH; read-out: PbDHODH): 2 to 10 µM; IC50 (hDHODH): > 10 µM
Cc1cc(Nc2ccc3c(c2)CCC3)n2ncnc2n1	0.116 ± 0.03			
Cc1cc(Nc2cc(F)c(F)cc2F)n2ncnc2n1		> 10	> 10	
Cc1cc(Nc2cccc(F)c2F)n2ncnc2n1		> 10	> 10	
Cc1cc(Nc2ccc(Cc3ccccc3)cc2)n2ncnc2n1			< 2	IC50 (PbDHODH; read-out: PbDHODH): > 10 µM; IC50 (hDHODH): 2 to 10 µM
Cc1cc(Nc2ccc(C)c(F)c2)n2nc(C)nc2n1	0.629			
Cc1cc(Nc2ccc(F)c(F)c2)n2ncnc2n1		2 to 10	2 to 10	
Cc1cc(Nc2ccc(Cl)c(C)c2)n2nc(C)nc2n1	1.39			
Cc1cc(Nc2cc(F)cc(F)c2)n2ncnc2n1			2 to 10	IC50 (PbDHODH; read-out: PbDHODH): > 10 µM; IC50 (hDHODH): > 10 µM
Cc1cc(Nc2ccc(-c3ccccc3)cc2)n2ncnc2n1			2 to 10	
Cc1cc(Nc2ccc([N+](=O)[O-])cc2)n2ncnc2n1		2 to 10	2 to 10	
Cc1cc(Nc2ccc(Br)c(C(F)(F)F)c2)n2ncnc2n1			< 2	IC50 (PbDHODH; read-out: PbDHODH): < 2 µM; IC50 (hDHODH): > 10 µM

Reference: patent US9216983B2, “Dihydroorotate dehydrogenase inhibitors with selective anti-malarial activity” (BOARD OF REGENTS, UNIVERSITY OF TEXAS SYSTEM, priority 2007, dated 2015)
